Assay results reported in patent publication EP2229935A1, “Peptide derivatives or pharmaceutically acceptable salts thereof, method for producing the same, use of said derivatives and pharmaceutical composition” (Nebolsin, Vladimir Evgenievich, priority 1997, dated 1999).
Marks after values point to notes of the source that are not given here.

Experiments:
[1] = test system: mongrel male mice; assay: Passive cutaneous anaphylaxis reaction; format: in vivo; conditions: PCA, oral 3 days
Method: Experiments were carried out on mongrel male mice with initial body mass 22-24 g. Each group included 10 animals. Sensibilization of animals was accomplished by intradermal injection of 20-30 µl of the serum of mice obtained from preliminaryly immunized animals comprising reagent antibodies against chicken ovalbumin (OVA). […] In 48 hours after sensibilzation an anaphylaxis-provoking OVA dose (1 mg and 0,2 ml Evans blue in 0.2 ml normal saline) were intravenously injected to mice. Passive cutaneous anaphylaxis reaction intensity (PCA) was determined in 30 minutes by the size (area) of a blue spot on the internal skin surface in the site of reagent anibodies' administration. Spot size was measured in two mutually perpendicular directions and the result was expressed in mm^2.

[2] = test system: Salmonella spp.; assay: Resistance of mice to Salmonella spp. infection; format: in vivo; conditions: test compounds 500 µg/kg orally; for MLT: mean lifetime
Method: Effect of the compounds of general formula (I) on change in average lifetime of experimental animals infected with Salmonella spp.
Experiments were carried out on mongrel white mice of both sexes weighing 18-22 g. Compounds III, XLIV and the reference drug sodium nucleinate were administered orally for 3 days (a total of 6 times) prior and post infection (dosage regimen -3, -2, -1, 0, 1, 2, 3, where 0 is infection day). A 24-hour Salmonella spp. culture grown on Hottinger agar, was used for infecting. Normal saline solution was used to prepare cellular suspension. Suspension of Salmonella spp. cells was administered subcutaneously at a dose 5 x 10^8 cells per a mouse in 0.5 ml.

[3] = test system: peritoneal macrophages; assay: Activity of peritoneal macrophages (NBT reduction test); format: in vivo, mongrel white male mice; conditions: for portion of active macrophages: mice, oral three days at 50 and 500 µg/kg
Method: Change in the activity of peritoneal macrophages (PM) as effected by the test compounds was studied.
Experiments were carried out on mongrel white male mice with initial body mass 20-22 g. Each group included 10 animals. Compounds III, VI, XLIV were dissolved in normal saline (NS). The test compounds were administered to animals orally for three days at doses 50 and 500 µg/kg. Animals of the control group were given equal volume of NS. Mice were sacrified 20 hours after the last compound administration, peritoneal cavity was washed with 1.5 ml Henks solution comprising 5 U/ml heparine. 0.1 ml of wash solution were incubated for 30 minutes at 37°C with 0.1 ml 0.2% nitroblue tetrasolium (NBT) solution, then smears were prepared. Nuclei were additionaly stained with o.1% neutral red solution. Results were expressed in percent of active cells [Klimov V.V., Kolovkina T.V. Nitroblue tetrasolium reduction test stimulated with pyrogenal. Laborotornoye delo (Laboratory matter) (1982), No 10, pp. 624-625]. […]

[4] = test system: NK-cells; assay: Activity of NK-cells after swimming stress (H^3-uridine release from YAC-1); format: in vivo, Balb male mice; conditions: 50 µg/kg orally four times
Method: (§1) Experiments were carried out on inbred Balb male mice with initial body mass 16-18 g. Each group included 12 animals. The model of swimming in warm water for 20 minutes was used to develop emotional-locomotory stress in animals. Stress development was estimated by the activity of natural killer lymphocytes (NK cells) and by functioning of the interferon system [Sukhikh T.G., Nossik N.N., Parshina O.V., Van'ko L.V., Meerson F.Z., Yershov F.I. Relationship between the natural cellular cytotoxicity system and the interferon system in immobilization stress. Bulletin of Experimental Biology (1984), ? , pp.593-595].
Activity of NK-cells was determined in the test of H^3-uridine release from the labelled target cells YAC-1 (mouse cellular lymphoma maintained by passages in vitro in suspension in the RPMI-1640 medium with 10% fetal serum). H^3-uridine (3-5 µC/cells/ml) was introduced into cellular suspension at concentration 1 miilion cells/ml on the 60th minute while shaking with 15 minute inerval and subsequent washing with the medium.
Splenocytes of mice which were obtained using the published method [Nossik N.N., Bopegamage S.A., Yershov F.I. Properties of interferons produced by different cell populations. Acta microbiologica Hungarica (1988), Vol. 35, Iss. 4, pp. 397-403] served as the source of NK-cells.
(§2) Animals were divided into four groups, each including 36 mice. • Group 1 - intact animals not subjected to stress and given normal saline (NS). • Group 2 - animals which ere subjected to stress effect and given NS. • Group 3 - animals which were subjected to stress effect and administered compound III. • Group 4 - animals which were subjected to stress effect and administered compound XLIV.
(§3) Activity of NK-cells and interferon state were dynamically determined in 4 hours following stress, in 24 hours and then by days 5, 7 and 10.

[5] = test system: α-interferon; assay: α-interferon production by splenocytes after stress; format: in vivo, Balb male mice; conditions: 50 µg/kg orally
Method: as §1
In studying interferon reaction of mouse splenocytes spleen cells were placed into incubation medium (the RPMI-1640 medium + 10% fetal calf serum), their concentration was brought to 1-3 x 10^8 cells/ml and they were incubated at 37°C for 24 hours. Newcasle disease virus (α-interferon induction) and FGA mitogen (γ-interferon induction) were used as intereferon inducers [Nossik N.N., Bopegamage S.A., Yershov F.I. Properties of interferons produced by different cell populations. Acta microbiologica Hungarica (1988), Vol. 35, Iss. 4, pp. 397-403].
as §2, §3

[6] = Day 1 following infection, regimen -3..3
[7] = score 0 (no formazane inclusions, inactive PM), 50 µg/kg orally for three days
[8] = score 0 (no formazane inclusions, inactive PM), 500 µg/kg orally for three days
[9] = score 1 (single formazane inclusions), 50 µg/kg orally for three days
[10] = score 1 (single formazane inclusions), 500 µg/kg orally for three days
[11] = score 2 (inclusions fill up to 1/3 of PM cytoplasm), 50 µg/kg orally for three days
[12] = score 2 (inclusions fill up to 1/3 of PM cytoplasm), 500 µg/kg orally for three days
[13] = score 3 (inclusions fill up to 1/2 of PM cytoplasm), 50 µg/kg orally for three days
[14] = score 3 (inclusions fill up to 1/2 of PM cytoplasm), 500 µg/kg orally for three days

| Molecule | Percent of the reaction inhibition ([1]; 50 µg/kg) | Reaction intensity, mm^2 ([1]; 50 µg/kg) | Number of dead mice [2, 6] | Number of dead mice ([2]; Day 3 following infection) | Number of dead mice ([2]; Day 5 following infection) | Number of dead mice ([2]; Day 6 following infection) | Number of dead mice ([2]; Day 7 following infection) | MLT [2] | portion of active macrophages [3] | Activity of macrophages, percent [3, 7] | Activity of macrophages, percent [3, 8] | Activity of macrophages, percent [3, 9] | Activity of macrophages, percent [3, 10] | Activity of macrophages, percent [3, 11] | Activity of macrophages, percent [3, 12] | Activity of macrophages, percent [3, 13] | Activity of macrophages, percent [3, 14] | activity of NK-cells ([4]; 0.16 days after stress) | activity of NK-cells ([4]; 1 day after stress) | activity of NK-cells ([4]; 5 days after stress) | further results |
| --- | --- | --- | --- | --- | --- | --- | --- | --- | --- | --- | --- | --- | --- | --- | --- | --- | --- | --- | --- | --- | --- |
| O=C(O)CCCC(=O)NCCc1c[nH]cn1 [compound III, N-GLUTARYLHISTAMINE] | 42% | 51.6 ± 17.1*^2 mm^2 | 1 | 1 | 1 | 2 | 2 | 4.5 ± 0.65 days | pronounced in study of the both substance doses | 11.6 ± 2.8% | 12.8 ± 1.3% | 27.5 ± 2.5% | 31.3 ± 2.3% | 44.6 ± 1.9% | 46.0 ± 2.6% | 15.8 ± 3.3% | 10.9 ± 2.1% | 68.5 ± 0.99*^1,2 | 69.3 ± 1.81***^2 | 79 ± 1.46 | Percent of the reaction inhibition ([1]; 150 µg/kg): 34.3%; Reaction intensity, mm^2 ([1]; 150 µg/kg): 53.7 ± 10.1*^1 mm^2; Percent of the reaction inhibition ([1]; 500 µg/kg): 30.0%; Reaction intensity, mm^2 ([1]; 500 µg/kg): 57.2 ± 12.6*^1 mm^2; Number of dead mice ([2]; Day 2 following infection): 1*^1; Number of dead mice ([2]; Day 4 following infection): 2; activity of NK-cells ([4]; 7 days after stress): 69.3 ± 4.85; activity of NK-cells ([4]; 10 days after stress): 77 ± 1.98; α-interferon, U/ml ([5]; 0 days after stress): 160 U/ml; α-interferon, U/ml ([5]; 0.16 days after stress): 10 U/ml; α-interferon, U/ml ([5]; 1 day after stress): 10 U/ml; α-interferon, U/ml ([5]; 5 days after stress): 160 U/ml; α-interferon, U/ml ([5]; 7 days after stress): 160 U/ml; α-interferon, U/ml ([5]; 10 days after stress): 160 U/ml |
| γ-L-glutamylhistamine [compound XLIV] | 50% | 44.6 ± 11.6 mm^2 | 3*^2 | 1 | 5 | 2 | 1 | 4.0 ± 0.73 days | more pronounced at a dose 500 µg/kg | 23.9 ± 4.4% | 17.4 ± 2.5% | 37.3 ± 3.4% | 37.3 ± 3.9% | 34.9 ± 5.9% | 35.8 ± 4.4% | 5.4 ± 2.0% | 9.4 ± 2.9% | 69.5 ± 1.32**^2 | 61.5 ± 2.64*^1,2 | 71 ± 0.82 | activity of NK-cells ([4]; 7 days after stress): 67.7 ± 3.95; activity of NK-cells ([4]; 10 days after stress): 77.5 ± 1.65; α-interferon, U/ml ([5]; 0 days after stress): 160 U/ml; α-interferon, U/ml ([5]; 0.16 days after stress): 10 U/ml; α-interferon, U/ml ([5]; 1 day after stress): 80 U/ml; α-interferon, U/ml ([5]; 5 days after stress): 80 U/ml; α-interferon, U/ml ([5]; 7 days after stress): 100 U/ml; α-interferon, U/ml ([5]; 10 days after stress): 140 U/ml |
